Tests used:
[1] = target: T1, mouse PPARγ ligand binding domain (Mus musculus, UniProt P37238); assay: PPARγ ligand activity: GAL4-mPPARγ LBD chimera luciferase reporter assay in CV-1 cells; assay type: cell-based; details: for PPARγ ligand activities (dependence on concentration): 2-10 μg/ml; for PPARγ ligand activity: relative to untreated control (DMSO)=1.00, mean ± SD, n=4
T1 construct: expressed in transfected cells; host or cells: CV-1 cells (African green monkey kidney)
T1 sequence (P37238 174-475 isoform P37238-2): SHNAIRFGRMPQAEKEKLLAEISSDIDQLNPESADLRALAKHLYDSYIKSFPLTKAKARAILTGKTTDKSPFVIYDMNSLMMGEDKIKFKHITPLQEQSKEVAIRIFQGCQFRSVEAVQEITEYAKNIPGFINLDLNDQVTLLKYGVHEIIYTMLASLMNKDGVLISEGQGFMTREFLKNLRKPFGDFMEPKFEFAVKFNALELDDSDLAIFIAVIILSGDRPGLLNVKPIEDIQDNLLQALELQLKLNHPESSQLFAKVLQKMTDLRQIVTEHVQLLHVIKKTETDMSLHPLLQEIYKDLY
Protocol: CV-1 cells (cultured cells derived from male African green monkey kidney) were inoculated into a 96-well culture plate at 6×10^3 cells/well, and incubated at 37° C. for 24 hours under 5% CO2 conditions. As a medium, DMEM (Dulbecco's Modified Eagle Medium, product of GIBCO) containing 10% FBS (fetal bovine serum), 10 ml/L penicillin-streptomycin (5000 IU/ml and 5000 μg/ml, respectively, product of GIBCO), 37 mg/L ascorbic acid (product of Wako Pure Chemical Industries, Ltd.) was used. Cells were washed with OPTI-MEM (product of GIBCO), a serum-free medium, and transfected with pM-mPPARγ and 4×USAg-luc using LIPOFECTAMINE PLUS™ (product of GIBCO), a reagent for transfection of genes using a cationic lipid. […] The 4×UASg-luc is a reporter plasmid incorporated luciferase gene with 4-time-repeated responsive element (UASg) of GAL4 ligated thereto at the upstream end thereof. At approximately 24 hours after the transfection, the medium was replaced by a medium containing each sample (n=4) and cells were incubated for an additional 2 hours. Each sample used was dissolved in dimethyl sulfoxide (DMSO) and DMSO was used as an untreated control sample. […] Cells were washed with Ca, Mg-containing phosphate buffered saline (PBS+) and added with LUCLITE™ (product of Packard), a reagent for determination of luminescence using luciferase. Then, the luminescent intensity by expressed luciferase was determined in a TOPCOUNT™ Microplate Scintillation/Luminescence Counter (product of Packard).
The luminescent intensity was determined in the control group in the same way as in the test groups, but using pM (a plasmid lacking PPARγ ligand binding domain gene) instead of pM-mPPARγ. The ratio (test group/control group) of the average luminescent intensity between the test and control groups (n=4) was determined for each sample, and the relative activity of test sample. against the untreated control sample was determined as the PPARγ ligand activity of the sample.

[2] = test system: streptozotocin-induced diabetic rats; details: diet containing 0.5% curcumin; cited from earlier work
KK-Ay mice = assay: Effect in KK-Ay model mice of type-II diabetes mellitus (body weight, blood glucose); assay type: in vivo, mouse; details: for Blood Glucose Level / Mouse Body weight: diet with 0.04% pioglitazone or 0.5% curcumin, mean ± SD
Protocol: KK-Ay mice, a model of genetically obese and type-II diabetic animals, were used to evaluate the effect of curcumin. Pioglitazone, a drug for treating diabetes mellitus, was used as a positive control.
KK-Ay mice (females, 6 weeks old) were divided into 3 groups (5 animals per group). By using a normal diet (product of Oriental Yeast Co. Ltd., Table 3) as a base feed, three types of feeds, i.e., a diet with out any additives, with pioglitazone and with curcumin, were prepared. Mice were placed in an environment in which they were freely accessible to a diet without any additives (control group), with pioglitazone (pioglitazone-added group) or with curcumin (curcumin-added group) for 4 weeks. Pioglitazone used was obtained by grinding Actos tablet 30 (30 mg pioglitazone per tablet, Takeda Chemical Industries Ltd.) in an agate mortar. The ground Actos tablet was then added to the normal diet at a dose of 0.04% pioglitazone. Curcumin was added to the normal diet at a dose of 0.5% curcumin.
During feeding, a small amount of blood was collected from the caudal vein of mice every week to determine blood glucose level using a simple bloodglucose level analyzer GLUTESTACE (Sanwa Kagaku Kenkyusho Co., Ltd.).

C57BL/6J mice = assay: Effect in model mice of diet-induced obesity (adipose tissue weights); assay type: in vivo, mouse
Protocol: C57BL/6J mice (females, 8 weeks old) were freely accessible to a high fat/high sugar diet (Oriental Yeast Co., Ltd., Table 6) for 8 weeks to obtain dietary obese animals. By using a normal diet (Oriental Yeast Co. Ltd., Table 3) as a base feed, two types of feeds, i.e., a diet without any additives and with 0.5% curcumin, were prepared. Next, said mice were divided into 2 groups (7 animals per group), and each group was freely accessible to a diet without any additives (control group) or with 0.5% curcumin (curcumin group) for 4 weeks. After an overnight fasting, mice were subjected to abdominal section under ether anesthesia to collect blood from the abdominal aorta, and then sacrificed. Then, adipose tissues were collected from the tissues around uterus, kidney and mesentery, and their weights were determined. The sum of the weights of periuterine, perirenal and mesenteric adipose tissues was determined as the total amount of intra-abdominal adipose tissue.

rats = rats which received curcumin; cited from earlier work
[3] = diet-induced obese C57BL/6J mice, 0.5% curcumin diet for 4 weeks, mean ± SD

Molecule | PPARγ ligand activities (dependence on concentration) [1] | PPARγ ligand activity ([1]; added concentration 2 μg/ml) | PPARγ ligand activity ([1]; added concentration 5 μg/ml) | PPARγ ligand activity ([1]; added concentration 10 μg/ml) | Blood Glucose Level (KK-Ay mice; After 1 week) [mg/dL] | Mouse Body weight (KK-Ay mice; After 1 week) [g] | Blood Glucose Level (KK-Ay mice; After 2 weeks) [mg/dL] | Mouse Body weight (KK-Ay mice; After 2 weeks) [g] | Blood Glucose Level (KK-Ay mice; After 3 weeks) [mg/dL] | Mouse Body weight (KK-Ay mice; After 3 weeks) [g] | Blood Glucose Level (KK-Ay mice; After 4 weeks) [mg/dL] | Mouse Body weight (KK-Ay mice; After 4 weeks) [g] | Blood Glucose Level (KK-Ay mice; Start of feeding) [mg/dL] | Mouse Body weight (KK-Ay mice; Start of feeding) [g] | further results
COc1cc(/C=C/C(=O)/C=C(O)/C=C/c2ccc(O)c(OC)c2)ccc1O [Compound 1, Curcumin] | concentration-dependent | 2.36 ± 0.94 | 3.67 ± 1.06 | 4.16 ± 1.10 | 191 ± 18 | 34.7 ± 1.1 | 222 ± 46 | 39.8 ± 0.7 | 348 ± 125 | 42.8 ± 0.9 | 344 ± 105 | 44.7 ± 1.0 | 139 ± 7 | 25.5 ± 0.7 | Cholesterol, triglyceride and phospholipid levels in blood [2]: reduced; Renal lesions associated with diabetes mellitus [2]: amelioration; Elevation of blood glucose level compared with control group (KK-Ay mice; 4 weeks feeding): suppressed significantly; Mouse body weight change compared with control group (KK-Ay mice; 4 weeks feeding): without any significant difference; Body weight compared with control group (C57BL/6J mice): no significant difference; Weights of periuterine, perirenal, mesenteric and intra-abdominal adipose tissues compared with control group (C57BL/6J mice): significantly reduced; Adipose tissue per body weight: Mesenteric adipose tissue (c) (C57BL/6J mice; [3]): 0.39 ± 0.11 % by weight; Adipose tissue per body weight: Perirenal adipose tissue (b) (C57BL/6J mice; [3]): 0.46 ± 0.15 % by weight; Adipose tissue per body weight: Periuterine adipose tissue (a) (C57BL/6J mice; [3]): 0.8 ± 0.21 % by weight; Body weight after feeding (C57BL/6J mice; [3]): 22.9 ± 0.9 g; Adipose tissue per body weight: Intra-abdominal adipose tissue (a + b + c) (C57BL/6J mice; sum of periuterine, perirenal and mesenteric, diet-induced obese C57BL/6J mice, 0.5% curcumin diet for 4 weeks, mean ± SD): 1.65 ± 0.42 % by weight; Activity of acyl-CoA oxidase (β-oxidation promotive enzyme) (rats): enhanced; Triglyceride accumulation in the liver (rats): inhibition
Demethoxycurcumin [Compound 2] | concentration-dependent | 2.17 ± 0.39 | 4.25 ± 0.77 | 4.41 ± 0.35 | – | – | – | – | – | – | – | – | – | – | –
Bisdemethoxycurcumin [Compound 3] | concentration-dependent | 1.88 ± 0.33 | 3.55 ± 0.38 | 4.08 ± 0.46 | – | – | – | – | – | – | – | – | – | – | –
CCc1ccc(CCOc2ccc(CC3SC(=O)NC3=O)cc2)nc1 (stereo not drawn) [Pioglitazone, reference compound] | – | – | – | – | 163 ± 23 | 36.7 ± 1.0 | 182 ± 9 | 39.9 ± 1.2 | 166 ± 18 | 42.3 ± 1.2 | 153 ± 21 | 43.8 ± 1.4 | 151 ± 9 | 26.9 ± 1.0 | –
